From patent US20050112123A1, “Methods of treating proteinuria” (priority 2003, published 2005) come the findings set out here.

The test system of series [1] is podocytes. Kind of series: Hoechst 33342 staining for apoptosis and binucleated cells. It counts as cell-based. As to conditions: at the concentrations of ATRA used in these experiments; statistically insignificant. The method, then:
To ensure that the anti-proliferative effects of ATRA were not confounded by podocyte apoptosis in podocytes or bi-nucleated cells, Hoechst 33342 (Molecular Probes, Eugene, Oreg., USA) staining was performed as previously reported. Hiromura et al. (1999) J Clin Invest 103:597-604. Careful morphological analysis was performed and the percentage of apoptotic cells was quantitated in adherent and non-adherent cells using inverted fluorescent microscopy as previously described. Hiromura et al. (1999) supra; and Mooney et al. (1997) J Immunol 159:3949-3960.

The subject of series [2] is C57BL6 mice with anti-glomerular antibody-mediated podocyte injury. Nature of the series: Anti-glomerular antibody model of podocyte injury: renal function (proteinuria, BUN). Type of series: in vivo, mouse. As to conditions: for BUN increase: anti-glomerular disease; for proteinuria vs control (vehicle): mice with anti-glomerular disease, ATRA 16.6 mg/kg IP daily, P<0.001, FIG. 3. The procedure:
An antibody-mediated model of podocyte injury was induced in C57BL6 mice with a sheep anti-glomerular antibody (two doses of 0.3 ml/20 gm body weight) over two consecutive days. Kim et al. (1999) Kidney Int 55:2349-2361; and Ophascharoensuk et al. (1998) Kidney Int 54:416-425. After the induction of the anti-glomerular model, but before the development of proteinuria, mice were then divided into an experimental group that received daily injections of ATRA 16.6 mg/kg (IP), and a control group that received vehicle (corn oil). Experimental and control animals were studied on day 7 and 14 (n=5 per group/time point). The podocyte specific proteins WT-1, nephrin, podocin, synaptopodin, were measured by immunostaining at each time point, as was the proliferation marker, PCNA (see above). Using proliferating cell nuclear antigen (PCNA) as a marker of proliferation and WT-1 as a marker for podocytes, the level of podocyte proliferation was determined.
Renal Function Assessment. Control and experimental mice were placed in metabolic urine collection cages in order to obtain a timed collection for urinalysis. Urine was analyzed for protein content utilizing the sulphosalicylic acid (SSA) method as previously described. Shankland et al. (1996) Kidney Int. 50:116-124. Serum was also collected from mice in order to evaluate blood urea nitrogen (BUN) levels. The BUN kit (Sigma Chemicals, St. Louis, Mo., USA) is based on the direct interaction of urea with diacetyl monomoxime […]. The absorbance obtained from serum samples is compared with a standard curve of increasing concentrations of urea nitrogen standards.

The subject of series [3] is conditionally immortalized podocytes from transgenic HIV Tg-26. Nature of the series: MTT proliferation assay, HIV transgenic (Tg) podocytes under growth restriction. It counts as cell-based, mouse. As to conditions: 25 ATRA, FIG. 6. The procedure:
(§1) To test the hypothesis that ATRA altered the proliferative capacity of podocytes in HIV transgenic mice, conditionally immortalized podocytes harvested from transgenic HIV Tg-26 (Tg) and conditionally immortalized podocytes from transgene free or wild-type podocytes (controls) were compared in a series of studies. Both transgenic and wild-type cell lines were initially plated in “growth permissive” conditions (33° C.) and grown in 10 ml of “standard media,” consisting of 90% RPMI 1640 (Invitrogen, Grand Island, N.Y.), 10% fetal bovine serum (Hyclone, Logan, Utah), 1% L-glutamine (Irvine Scientific, Santa Ana, Calif.), 1% pen-strep (Biosource, Rockville, Md.), 1% sodium bicarbonate (Sigma-Aldrich, St Louis, Mo.) and 1% HEPES buffer (Sigma-Aldrich, Santa, Ana, Calif.), and 1% sodium pyruvate (Irvine Scientific, Santa Ana, Calif.). For growth promotion, 5 μl of mouse gamma interferon were added to 10 ml of media. […]
(§2) Each study group was assessed for proliferation (see below) at three different time points as follows: (i) day “1” of growth restriction which was defined as 24 h after plating cells into growth restrictive conditions; (ii) day 7 of growth restrictive conditions. […]
(§3) Cell proliferation was assessed by the MTT (Promega, Madison, Wis.) assay on days 1, 7, and 14 of growth restriction. […]
(Tetrazolium assays rely on reduction of a dye to a coloured formazan, in cell work by metabolically active cells.)

Series [4] has as its system conditionally immortalized wild-type podocytes. Nature of the series: MTT proliferation assay, wild-type (WT) podocytes under growth restriction. Type of series: cell-based, mouse. The method, then: as §1, §2, §3
The test system of series [5] is podocytes. Kind of series: Hoecht's Assay of apoptosis for dose selection. Type of series: cell-based, mouse. As to conditions: 25 mM ATRA. The method, then: The dose of 25 mMol/ml ATRA was selected after exposing cells to varying mMol doses of ATRA (10, 25, 50, 75, 100) and then measuring apoptosis with the Hoecht's Assay according to the manufacturer's directions. Apoptosis was not increased at 25 mM.

The test system of series [6] is heat sensitive mouse podocytes. Nature of the series: Immunofluorescent staining of cultured HSMP (nephrin, podocin). As to conditions: 200 μM ATRA.

In the case of `CC1=C(/C=C/C(C)=C/C=C/C(C)=C/C(=O)O)C(C)(C)CCC1` [ATRA, all-trans retinoic acid], the “cells undergoing apoptosis (Hoechst staining)” value in series [1] is recorded as < 4 % of total cells. The BUN increase entry in series [2] (day 7) and in series [2] (day 14) was “not altered” each time. Also, the “proteinuria vs control (vehicle)” value in series [2] (day 7) and in series [2] (day 14) was “significantly reduced proteinuria” in each case. Also, the “reduction of proliferation of transgenic podocytes (MTT) compared to Tg podocytes without ATRA” value was 50% in series [3] (day 7 of growth restriction, p<.05) and 25% in series [3] (day 14 of growth restriction, p<0.005). Moreover, the “proliferation of WT podocytes (MTT), exposed to ATRA vs without ATRA” value in series [4] was “no measurable difference”. Also, in series [5], the “apoptosis (Hoecht's Assay)” value was “not increased”. Also, the “podocin immunostaining compared to control” value in series [6] (HSMP) was “increased immunostaining”. In addition, the “nephrin immunostaining compared to control cells exposed to vehicle” value in series [6] (heat sensitive mouse podocytes) is “nephrin immunostaining increased”.
